Assay: Thermogravimetry of the temperature of decomposition of indigo (FIGS. 3 and 6)
Assay type: physicochemical
Experimental: […] This peak is offset to around 540° C. when the mixture has been heated at 18 (unheated), 120, 180, 280 and 350° C. during production of the composite.
In addition, during the step of cleaning by heating at temperatures of 18 (unheated), 180, 280 and 320° C. for 20 minutes, a peak characteristic of the presence of indigo in the external medium is observed, as these molecules begin to decompose at 280° C. with a maximum rate at 340° C. This phenomenon is possible owing to surface interactions between the indigo and the sepiolite, which reduce the temperature of decomposition of the indigo, which in a pure product begins at 300° C. with a maximum at 390° C. However, this peak disappears after the cleaning by heating at 350° C. for 20 minutes. […] Also, at 520° C., a peak characteristic of the presence of indigo in the sepiolite tunnels is observed. This cleaning by heating step in this type of preparation enables only the molecules present in the tunnels to be preserved.

O=C1/C(=C2\Nc3ccccc3C2=O)Nc2ccccc21 [indigo]
temperature of maximum rate of decomposition of indigo (indigo in the external medium of 23% indigo/sepiolite mixtures): 340 °C
temperature at which decomposition of indigo begins (indigo in the external medium of 23% indigo/sepiolite mixtures (surface interactions with sepiolite)): 280 °C
temperature of the thermogravimetric peak of indigo (indigo in the sepiolite tunnels of 23% indigo/sepiolite mixtures (FIG. 6)): around 520 °C
maximum temperature of decomposition of indigo (indigo incorporated in the sepiolite tunnels (FIG. 3)): 540 °C
maximum temperature of decomposition of indigo (native indigo (FIG. 3)): around 375 °C
temperature at which decomposition of indigo begins (pure product): 300 °C
temperature of maximum decomposition of indigo (pure product): 390 °C
